Data published in patent US8022206B2 (OSI Pharmaceuticals, LLC, priority 2008, dated 2011).
pIC50: −log10 of the molar value. Where two headings read alike, the source gives them in different places.

Columns and labels:
RON (human) = RON (human) (Homo sapiens, UniProt Q04912); experiment: RON (human) AlphaScreen kinase assay, Km of ATP; type: biochemical
Procedure, shortened: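 Detection used PT66 AlphaScreen beads added in Tris pH 7.5/NaCl/EDTA/BSA buffer, read after 1 h incubation. Vehicle-only DMSO wells served as controls.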

MET (human) = MET (human) (Homo sapiens, UniProt P08581); experiment: MET (human) AlphaScreen kinase assay, Km of ATP; type: biochemical
Procedure, shortened: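 Human MET at lot-optimised concentration in 50 mM Tris pH 7.4 buffer with 1 mM DTT, compound at 1% DMSO final; enzyme starts the reaction, 60 min at RT.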

[1] = AlphaScreen, Km of ATP, read-out: RON biochemical IC50
[2] = AlphaScreen, Km of ATP, read-out: Met biochemical IC50

Sequence of RON (human) (Q04912 25-1400): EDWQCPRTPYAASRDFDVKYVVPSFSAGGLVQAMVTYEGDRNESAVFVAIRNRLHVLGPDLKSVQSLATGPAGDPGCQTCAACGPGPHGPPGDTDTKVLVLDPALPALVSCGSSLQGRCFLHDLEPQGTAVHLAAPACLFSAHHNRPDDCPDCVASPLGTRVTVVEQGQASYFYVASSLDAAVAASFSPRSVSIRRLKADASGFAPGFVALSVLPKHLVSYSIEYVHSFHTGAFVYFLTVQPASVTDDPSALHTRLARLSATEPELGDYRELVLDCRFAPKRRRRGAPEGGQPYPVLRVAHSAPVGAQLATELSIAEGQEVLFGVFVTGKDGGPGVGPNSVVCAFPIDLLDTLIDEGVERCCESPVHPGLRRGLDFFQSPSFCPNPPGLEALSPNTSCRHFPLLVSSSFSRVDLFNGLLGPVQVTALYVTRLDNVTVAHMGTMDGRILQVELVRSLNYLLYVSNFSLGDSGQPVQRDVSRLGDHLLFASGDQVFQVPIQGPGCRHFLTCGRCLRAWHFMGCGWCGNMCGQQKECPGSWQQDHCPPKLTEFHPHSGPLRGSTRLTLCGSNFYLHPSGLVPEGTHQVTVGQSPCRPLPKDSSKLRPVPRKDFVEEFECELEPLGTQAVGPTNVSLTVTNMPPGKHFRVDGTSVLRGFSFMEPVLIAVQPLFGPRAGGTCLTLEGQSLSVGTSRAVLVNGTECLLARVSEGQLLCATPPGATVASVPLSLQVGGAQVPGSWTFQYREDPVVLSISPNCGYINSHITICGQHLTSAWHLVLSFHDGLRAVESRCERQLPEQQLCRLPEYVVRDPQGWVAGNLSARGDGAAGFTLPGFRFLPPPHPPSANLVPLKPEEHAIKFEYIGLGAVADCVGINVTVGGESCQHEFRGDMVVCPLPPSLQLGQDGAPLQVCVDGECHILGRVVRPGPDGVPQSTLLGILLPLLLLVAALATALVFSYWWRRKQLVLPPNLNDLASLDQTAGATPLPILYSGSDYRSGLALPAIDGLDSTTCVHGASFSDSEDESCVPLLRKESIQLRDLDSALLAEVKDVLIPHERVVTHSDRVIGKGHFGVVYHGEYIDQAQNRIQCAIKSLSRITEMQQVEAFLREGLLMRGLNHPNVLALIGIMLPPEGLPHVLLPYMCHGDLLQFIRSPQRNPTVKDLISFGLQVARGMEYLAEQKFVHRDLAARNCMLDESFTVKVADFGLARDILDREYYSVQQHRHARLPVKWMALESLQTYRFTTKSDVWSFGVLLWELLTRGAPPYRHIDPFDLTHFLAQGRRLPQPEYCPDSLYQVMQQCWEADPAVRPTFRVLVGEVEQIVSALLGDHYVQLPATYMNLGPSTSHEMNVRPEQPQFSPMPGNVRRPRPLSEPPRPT
Sequence of MET (human) (P08581 25-1390): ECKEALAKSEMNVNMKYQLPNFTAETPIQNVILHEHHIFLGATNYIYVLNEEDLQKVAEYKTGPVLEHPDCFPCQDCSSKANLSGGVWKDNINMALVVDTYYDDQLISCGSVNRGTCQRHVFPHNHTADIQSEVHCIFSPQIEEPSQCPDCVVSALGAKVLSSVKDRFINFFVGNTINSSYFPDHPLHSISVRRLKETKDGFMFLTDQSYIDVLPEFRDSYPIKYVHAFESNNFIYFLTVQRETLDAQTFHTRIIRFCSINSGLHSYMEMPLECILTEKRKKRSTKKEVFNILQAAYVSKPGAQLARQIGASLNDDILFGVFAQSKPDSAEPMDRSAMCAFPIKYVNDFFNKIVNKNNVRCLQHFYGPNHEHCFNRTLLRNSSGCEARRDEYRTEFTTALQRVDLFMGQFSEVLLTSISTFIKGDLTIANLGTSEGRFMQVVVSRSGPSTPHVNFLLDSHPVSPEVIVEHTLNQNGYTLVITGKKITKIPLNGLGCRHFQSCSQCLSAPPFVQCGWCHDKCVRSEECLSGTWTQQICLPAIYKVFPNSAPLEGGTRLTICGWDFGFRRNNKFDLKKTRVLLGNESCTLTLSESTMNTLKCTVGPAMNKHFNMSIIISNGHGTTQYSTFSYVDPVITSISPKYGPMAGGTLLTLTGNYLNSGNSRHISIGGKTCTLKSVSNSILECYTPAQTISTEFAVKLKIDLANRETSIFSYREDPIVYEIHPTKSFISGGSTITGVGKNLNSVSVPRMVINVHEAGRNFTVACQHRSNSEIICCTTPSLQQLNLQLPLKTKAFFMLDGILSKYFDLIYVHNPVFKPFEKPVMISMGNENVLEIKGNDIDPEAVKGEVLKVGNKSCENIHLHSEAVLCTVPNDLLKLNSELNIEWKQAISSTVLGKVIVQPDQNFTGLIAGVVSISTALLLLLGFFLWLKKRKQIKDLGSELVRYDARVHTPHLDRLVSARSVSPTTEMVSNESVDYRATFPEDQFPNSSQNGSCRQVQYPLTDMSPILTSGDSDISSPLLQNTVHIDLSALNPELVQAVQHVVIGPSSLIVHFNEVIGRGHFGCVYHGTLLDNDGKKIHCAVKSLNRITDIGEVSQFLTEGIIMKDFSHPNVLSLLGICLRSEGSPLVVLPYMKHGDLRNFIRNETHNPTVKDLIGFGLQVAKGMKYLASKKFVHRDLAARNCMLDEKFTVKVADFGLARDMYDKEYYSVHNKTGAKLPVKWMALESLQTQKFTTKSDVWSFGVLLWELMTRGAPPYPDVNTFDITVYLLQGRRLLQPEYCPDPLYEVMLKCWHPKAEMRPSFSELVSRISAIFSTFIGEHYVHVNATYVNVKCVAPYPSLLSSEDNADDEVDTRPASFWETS

## C[C@@H](Oc1c(N)ncc2c(-c3ccc(OCCCN(C)C)nc3)coc12)c1c(Cl)ccc(F)c1Cl [Example 122, 7-[(R)-1-(2,6-Dichloro-3-fluorophenyl)ethoxy]-3-[6-(3-dimethylaminopropoxy)pyridin-3-yl]furo[3,2-c]pyridin-6-ylamine]
RON (human); [1]
  pIC50: > 6.30
MET (human); [2]
  pIC50: > 6.30

## C[C@@H](Oc1c(N)ncc2c(-c3ccc(C(=O)N4CCC(=O)CC4)cc3)coc12)c1c(Cl)ccc(F)c1Cl [Example 284, 1-(4-{6-Amino-7-[(R)-1-(2,6-dichloro-3-fluorophenyl)-ethoxy]furo[3,2-c]pyridin-3-yl}benzoyl)piperidin-4-one]
RON (human)
  pIC50: 5.30 to 6.30
MET (human)
  pIC50: 5.30 to 6.30

## CC(C)CN1CC=C(c2coc3c(O[C@H](C)c4c(Cl)ccc(F)c4Cl)c(N)ncc23)CC1 [Example 41, 7-[(R)-1-(2,6-Dichloro-3-fluorophenyl)-ethoxy]-3-(1-isobutyl-1,2,3,6-tetrahydropyridin-4-yl)-furo[3,2-c]pyridin-6-ylamine]
RON (human); [1]
  pIC50: > 6.30
MET (human); [2]
  pIC50: > 6.30

## CC(Oc1c(N)ncc2c(C3=CCN(C(N)=O)CC3)coc12)c1c(Br)ccc(F)c1Cl (centres unmarked) [Example 457, 4-{6-Amino-7-[1-(6-bromo-2-chloro-3-fluorophenyl)ethoxy]furo[3,2-c]pyridin-3-yl}-3,6-dihydro-2H-pyridine-1-carboxamide]
RON (human); [1]
  pIC50: 5.30 to 6.30
MET (human); [2]
  pIC50: > 6.30

## C[C@@H](Oc1c(N)ncc2c(-c3cnn(C4CCNCC4)c3)coc12)c1ccccc1Cl [Example 335, 7-[(R)-1-(2-Chlorophenyl)ethoxy]-3-(1-piperidin-4-yl-1H-pyrazol-4-yl)-furo[3,2-c]pyridin-6-ylamine]
RON (human); [1]
  pIC50: 5.30 to 6.30
MET (human); [2]
  pIC50: > 6.30

## C[C@@H](Oc1c(N)ncc2c(-c3cnn(C4CCNCC4)c3)c(Br)oc12)c1c(Cl)ccc(F)c1Cl [Example 167, 2-Bromo-7-[(R)-1-(2,6-dichloro-3-fluorophenyl)ethoxy]-3-(1-piperidin-4-yl-1H-pyrazol-4-yl)-furo[3,2-c]pyridin-6-ylamine]
RON (human); [1]
  pIC50: 5.30 to 6.30
MET (human); [2]
  pIC50: > 6.30

## Cc1ccsc1-c1coc2c(O[C@H](C)c3c(Cl)ccc(F)c3Cl)c(N)ncc12 [Example 116, 7-[(R)-1-(2,6-Dichloro-3-fluorophenyl)ethoxy]-3-(3-methylthiophen-2-yl)furo[3,2-c]pyridin-6-ylamine]
RON (human); [1]
  pIC50: 4.70 to 5.30
MET (human); [2]
  pIC50: 5.30 to 6.30

## Cn1c(Cc2ccccc2)ncc(-c2ccc(COc3c(N)ncc4ccoc34)c(F)c2)c1=O [Example 468, 5-[4-(6-Aminofuro[3,2-c]pyridin-7-yloxymethyl)-3-fluorophenyl]-2-benzyl-3-methyl-3H-pyrimidin-4-one]
RON (human); [1]
  pIC50: 4.70 to 5.30
MET (human); [2]
  pIC50: 4.70 to 5.30

## CC(Cc1ccccc1F)Oc1c(N)ncc2c(-c3cnn(C4CCNCC4)c3)coc12 (centres unmarked) [Example 423, 7-[2-(2-Fluorophenyl)-1-methylethoxy]-3-(1-piperidin-4-yl-1H-pyrazol-4-yl)furo[3,2-c]pyridin-6-ylamine]
RON (human); [1]
  pIC50: 5.30 to 6.30
MET (human); [2]
  pIC50: > 6.30

## Nc1ncc2c(-c3cnn(C4CCNCC4)c3)coc2c1OC1CCCc2c(F)cccc21 (centres unmarked) [Example 390, 7-(5-Fluoro-1,2,3,4-tetrahydronaphthalen-1-yloxy)-3-(1-piperidin-4-yl-1H-pyrazol-4-yl)furo[3,2-c]pyridin-6-ylamine]
RON (human); [1]
  pIC50: > 6.30
MET (human); [2]
  pIC50: > 6.30

## C[C@@H](Oc1c(N)ncc2c(-c3cccc(N)c3)coc12)c1c(Cl)ccc(F)c1Cl [Example 66, 3-(3-Aminophenyl)-7-[(R)-1-(2,6-dichloro-3-fluorophenyl)ethoxy]-furo[3,2-c]pyridin-6-ylamine]
RON (human); [1]
  pIC50: 5.30 to 6.30
MET (human); [2]
  pIC50: 5.30 to 6.30

## CC(Oc1c(N)ncc2c(-c3cnn(C4CCNCC4)c3)coc12)c1cc(F)cc(-c2cn[nH]c2)c1 (centres unmarked) [Example 451, 7-{1-[3-Fluoro-5-(1H-pyrazol-4-yl)phenyl]ethoxy}-3-(1-piperidin-4-yl-1H-pyrazol-4-yl)furo[3,2-c]pyridin-6-ylamine]
RON (human); [1]
  pIC50: 5.30 to 6.30
MET (human); [2]
  pIC50: > 6.30

## C[C@@H](Oc1c(N)ncc2c(C3=CCN(C(=O)N4CCCCC4)CC3)coc12)c1c(Cl)ccc(F)c1Cl [Example 32, (4-{6-Amino-7-[(R)-1-(2,6-dichloro-3-fluorophenyl)-ethoxy]-furo[3,2-c]pyridin-3-yl}-3,6-dihydro-2H-pyridin-1-yl)-piperidin-1-ylmethanone]
RON (human); [1]
  pIC50: 5.30 to 6.30
MET (human); [2]
  pIC50: 5.30 to 6.30

## C[C@@H](Oc1c(N)ncc2c(C3=CCN(C(=O)C(C)(C)N)CC3)coc12)c1c(Cl)ccc(F)c1Cl [Example 24, 2-Amino-1-(4-{6-amino-7-[(R)-1-(2,6-dichloro-3-fluorophenyl)-ethoxy]-furo[3,2-c]pyridin-3-yl}-3,6-dihydro-2H-pyridin-1-yl)-2-methylpropan-1-one]
RON (human); [1]
  pIC50: > 6.30
MET (human); [2]
  pIC50: > 6.30

## CC(Oc1c(N)ncc2c(-c3cnn(C4CCNCC4)c3)coc12)c1ccc(C(F)(F)F)cc1 (centres unmarked) [Example 348, 3-(1-Piperidin-4-yl-1H-pyrazol-4-yl)-7-[1-(4-trifluoromethyl-phenyl)ethoxy]furo[3,2-c]pyridin-6-ylamine]
RON (human); [1]
  pIC50: 5.30 to 6.30
MET (human); [2]
  pIC50: > 6.30

## CC(Oc1c(N)ncc2c(-c3cnn(C4CCNCC4)c3)coc12)c1ccc(C(N)=O)cc1 (centres unmarked) [Example 420, 4-{1-[6-Amino-3-(1-piperidin-4-yl-1H-pyrazol-4-yl)furo[3,2-c]pyridin-7-yloxy]ethyl}benzamide]
RON (human); [1]
  pIC50: 4.70 to 5.30
MET (human); [2]
  pIC50: 5.30 to 6.30

## C[C@@H](Oc1c(N)ncc2c(C3=CCN(C(=O)Nc4ccccc4F)CC3)coc12)c1c(Cl)ccc(F)c1Cl [Example 150, 4-{6-Amino-7-[(1R)-1-(2,6-dichloro-3-fluorophenyl)ethoxy]furo[3,2-c]pyridin-3-yl}-N-(2-fluorophenyl)-3,6-dihydropyridine-1(2H)-carboxamide]
RON (human); [1]
  pIC50: 5.30 to 6.30
MET (human); [2]
  pIC50: 5.30 to 6.30

## C[C@@H](Oc1c(N)ncc2c(C3=CCN(C(=O)[C@@H]4CCCN4)CC3)coc12)c1c(Cl)ccc(F)c1Cl [Example 22, (4-{6-Amino-7-[(R)-1-(2,6-dichloro-3-fluorophenyl)ethoxy]furo[3,2-c]pyridin-3-yl}-3,6-dihydro-2H-pyridin-1-yl)-(S)-pyrrolidin-2-ylmethanone]
RON (human); [1]
  pIC50: > 6.30
MET (human); [2]
  pIC50: > 6.30

## C[C@@H](Oc1c(N)ncc2c(-c3ccc(C(=O)N4CCN(C)CC4)cc3)coc12)c1c(Cl)ccc(F)c1Cl [Example 75, (4-{6-Amino-7-[(R)-1-(2,6-dichloro-3-fluorophenyl)ethoxy]-furo[3,2-c]pyridin-3-yl}phenyl)-(4-methylpiperazin-1-yl)methanone]
RON (human); [1]
  pIC50: 5.30 to 6.30
MET (human); [2]
  pIC50: > 6.30

## Cc1ccnc(C)c1C(C)Oc1c(N)ncc2c(-c3cnn(C4CCNCC4)c3)coc12 (centres unmarked) [Example 362, 7-[1-(2,4-Dimethylpyridin-3-yl)ethoxy]-3-(1-piperidin-4-yl-1H-pyrazol-4-yl)furo[3,2-c]pyridin-6-ylamine]
RON (human); [1]
  pIC50: 5.30 to 6.30
MET (human); [2]
  pIC50: > 6.30

## C[C@@H](Oc1c(N)ncc2c(-c3cccc(NS(C)(=O)=O)c3)coc12)c1c(Cl)ccc(F)c1Cl [Example 79, N-(3-{6-Amino-7-[(R)-1-(2,6-dichloro-3-fluorophenyl)ethoxy]-furo[3,2-c]pyridin-3-yl}phenyl)methanesulfonamide]
RON (human); [1]
  pIC50: 5.30 to 6.30
MET (human); [2]
  pIC50: > 6.30

## CC(C)NC(=O)c1cc(-c2coc3c(O[C@H](C)c4c(Cl)ccc(F)c4Cl)c(N)ncc23)cs1 [Example 312, 4-{6-Amino-7-[(R)-1-(2,6-dichloro-3-fluorophenyl)ethoxy]furo[3,2-c]pyridin-3-yl}thiophene-2-carboxylic acid isopropylamide]
RON (human); [1]
  pIC50: 5.30 to 6.30
MET (human); [2]
  pIC50: > 6.30

## CCCOC(=O)N1CC=C(c2coc3c(O[C@H](C)c4c(Cl)ccc(F)c4Cl)c(N)ncc23)CC1 [Example 52, 4-{6-Amino-7-[(R)-1-(2,6-dichloro-3-fluorophenyl)-ethoxy]-furo[3,2-c]pyridin-3-yl}-3,6-dihydro-2H-pyridine-1-carboxylic acid propyl ester]
RON (human); [1]
  pIC50: 5.30 to 6.30
MET (human); [2]
  pIC50: 5.30 to 6.30

## C[C@@H](Oc1c(N)ncc2c(C3=CCN(CC(=O)N4CCC(O)C4)CC3)coc12)c1c(Cl)ccc(F)c1Cl (stereo partly drawn) [Example 203, 2-(4-{6-Amino-7-[(R)-1-(2,6-dichloro-3-fluorophenyl)ethoxy]-furo[3,2-e]pyridin-3-yl}-3,6-dihydro-2H-pyridin-1-yl)-1-(3-hydroxypyrrolidin-1-yl)ethanone]
RON (human); [1]
  pIC50: 5.30 to 6.30
MET (human); [2]
  pIC50: > 6.30

## C[C@@H](Oc1c(N)ncc2c(-c3cccc(CO)c3)coc12)c1c(Cl)ccc(F)c1Cl [Example 57, (3-{6-Amino-7-[(R)-1-(2,6-dichloro-3-fluorophenyl)ethoxy]-furo[3,2-c]pyridin-3-yl}phenyl)methanol]
RON (human); [1]
  pIC50: 5.30 to 6.30
MET (human); [2]
  pIC50: 5.30 to 6.30

## C[C@@H](Oc1c(N)ncc2c(-c3cnc(N(C)C)nc3)coc12)c1c(Cl)ccc(F)c1Cl [Example 124, 7-[(R)-1-(2,6-Dichloro-3-fluorophenyl)ethoxy]-3-(2-dimethylaminopyrimidin-5-yl)furo[3,2-c]pyridin-6-ylamine]
RON (human); [1]
  pIC50: 5.30 to 6.30
MET (human); [2]
  pIC50: 5.30 to 6.30

## C[C@@H](Oc1c(N)ncc2c(-c3cnn(C4CCNCC4)c3)c(C#CCN)oc12)c1c(Cl)ccc(F)c1Cl [Example 173, 2-(3-Aminoprop-1-ynyl)-7-[(R)-1-(2,6-dichloro-3-fluorophenyl)ethoxy]-3-(1-piperidin-4-yl-1H-pyrazol-4-yl)-furo[3,2-c]pyridin-6-ylamine]
RON (human); [1]
  pIC50: > 6.30
MET (human); [2]
  pIC50: > 6.30

## C[C@@H](Oc1c(N)ncc2c(C3=CCN(C(=O)[C@@H]4CCCNC4)CC3)coc12)c1c(Cl)ccc(F)c1Cl [Example 241, (4-{6-Amino-7-[(R)-1-(2,6-dichloro-3-fluorophenyl)ethoxy]-furo[3,2-c]pyridin-3-yl}-3,6-dihydro-2H-pyridin-1-yl)-(R)-piperidin-3-ylmethanone]
RON (human); [1]
  pIC50: > 6.30
MET (human); [2]
  pIC50: > 6.30
